Laboratory results as given in patent US20230072421A1, “TARGETED RADIOPHARMACEUTICALS FOR THE DIAGNOSIS AND TREATMENT OF PROSTATE CANCER” (Bayer AS, priority 2019, published 2023).

Molecular target: T1, PSMA-expressing LNCaP cells (Homo sapiens, UniProt Q04609)
T1 construct: PSMA-expressing LNCaP cells; endogenous in cells; host or cells: LNCaP
Test: Binding competition assay against 3H-PSMA-617 on LNCaP cells
Settings: LNCaP cells; for remaining activity at 0.01 µM / remaining activity at 0.1 µM: 10 nM 3H-PSMA-617, 2 h at 37° C., triplicates; for remaining activity at 0.01 µM: competing non-radiolabeled compound 10 nM; for remaining activity at 0.1 µM: competing non-radiolabeled compound 100 nM
In short: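 Compounds added to LNCaP cells in growth medium, 2 h at 37 °C, 5% CO2. After two ice-cold PBS washes, cells lysed in 0.3 M NaOH and bound radioactivity measured by liquid scintillation counting.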

T1 sequence (Q04609 whole entry): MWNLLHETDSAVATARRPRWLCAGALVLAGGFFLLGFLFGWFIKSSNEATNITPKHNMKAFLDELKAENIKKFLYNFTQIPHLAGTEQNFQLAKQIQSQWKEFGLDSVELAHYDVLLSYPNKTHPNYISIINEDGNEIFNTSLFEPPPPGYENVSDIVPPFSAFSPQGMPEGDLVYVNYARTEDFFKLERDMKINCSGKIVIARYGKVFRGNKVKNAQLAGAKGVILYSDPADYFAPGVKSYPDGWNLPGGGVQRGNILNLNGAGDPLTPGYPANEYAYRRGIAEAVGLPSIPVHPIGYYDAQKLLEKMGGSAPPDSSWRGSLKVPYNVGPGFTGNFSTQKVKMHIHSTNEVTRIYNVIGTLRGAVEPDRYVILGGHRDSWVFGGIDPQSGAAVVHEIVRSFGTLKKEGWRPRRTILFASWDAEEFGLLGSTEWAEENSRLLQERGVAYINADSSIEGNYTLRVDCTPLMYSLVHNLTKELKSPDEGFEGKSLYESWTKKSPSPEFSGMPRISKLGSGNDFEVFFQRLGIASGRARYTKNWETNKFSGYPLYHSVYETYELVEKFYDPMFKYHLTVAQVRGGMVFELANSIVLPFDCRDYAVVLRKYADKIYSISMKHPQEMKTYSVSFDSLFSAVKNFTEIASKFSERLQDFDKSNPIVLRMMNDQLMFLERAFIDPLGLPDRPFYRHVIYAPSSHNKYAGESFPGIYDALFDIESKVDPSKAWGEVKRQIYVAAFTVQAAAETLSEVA

Compound	remaining activity at 0.01 µM	remaining activity at 0.1 µM	Non-specific binding: remaining binding of 3H-PSMA-617 in the presence of unlabeled PSMA-617 (unlabeled PSMA-617 at 5000 nM (500 fold excess))
NC[C@H]1CC[C@H](C(=O)N[C@H](Cc2ccc3c(c2)CCCO3)C(=O)NCCCC[C@H](NC(=O)N[C@@H](CCC(=O)O)C(=O)O)C(=O)O)CC1 [Example 38-A, N^6—{N-[(1r,4S)-4-(aminomethyl)cyclohexane-1-carbonyl]-3-(3,4-dihydro-2H-1-benzopyran-6-yl)-D-alanyl}-N^2-{[(1S)-1,3-dicarboxypropyl]carbamoyl}-L-lysine]	140%	106%	
O=C(O)CC[C@H](NC(=O)N[C@@H](CCCCNC(=O)[C@@H](Cc1ccc2c(c1)CCCO2)NC(=O)[C@H]1CC[C@H](CNC(=O)CN2CCN(CC(=O)O)CCN(CC(=O)O)CCN(CC(=O)O)CC2)CC1)C(=O)O)C(=O)O [Example 38-B, N^6-{3-(3,4-dihydro-2H-1-benzopyran-6-yl)-N-[(1r,4S)-4-({2-[4,7,10-tris(carboxymethyl)-1,4,7,10-tetraazacyclododecan-1-yl]acetamido}methyl)cyclohexane-1-carbonyl]-D-alanyl}-N^2-{[(1S)-1,3-dicarboxypropyl]carbamoyl}-L-lysine]	76%	34%	
CNc1cc2ccccc2cc1C[C@@H](NC(=O)[C@H]1CC[C@H](CNC(=O)CN2CCN(CC(=O)O)CCN(CC(=O)O)CCN(CC(=O)O)CC2)CC1)C(=O)NCCCC[C@H](NC(=O)N[C@@H](CCC(=O)O)C(=O)O)C(=O)O [Example 39-B, (3R,10S,14S)-3-{[3-(methylamino)naphthalen-2-yl]methyl}-1,4,12-trioxo-1-[(1r,4S)-4-({2-[4,7,10-tris(carboxymethyl)-1,4,7,10-tetraazacyclododecan-1-yl]acetamido}methyl)cyclohexyl]-2,5,11,13-tetraazahexadecane-10,14,16-tricarboxylic acid]	81%	32%	
N[C@H]1CC[C@H](CNC(=O)N[C@@H](Cc2ccc3ccccc3c2)C(=O)NCCCC[C@H](NC(=O)N[C@@H](CCC(=O)O)C(=O)O)C(=O)O)CC1 [Example 40-A, (5S,12S,16S)-1-[(1r,4S)-4-aminocyclohexyl]-5-[(naphthalen-2-yl)methyl]-3,6,14-trioxo-2,4,7,13,15-pentaazaoctadecane-12,16,18-tricarboxylic acid]	87%	62%	
NC[C@H]1CC[C@H](C(=O)N[C@H](Cc2csc3ccc(Cl)cc23)C(=O)NCCCC[C@H](NC(=O)N[C@@H](CCC(=O)O)C(=O)O)C(=O)O)CC1 [Example 41-A, N^6—{N-[(1r,4S)-4-(aminomethyl)cyclohexane-1-carbonyl]-3-(5-chloro-1-benzothiophen-3-yl)-D-alanyl}-N^2-{[(1S)-1,3-dicarboxypropyl]carbamoyl}-L-lysine]	82%	61%	
NC[C@H]1CC[C@H](C(=O)N[C@H](Cc2ccc3ccncc3c2)C(=O)NCCCC[C@H](NC(=O)N[C@@H](CCC(=O)O)C(=O)O)C(=O)O)CC1 [Example 42-A, (3R,10S,14S)-1-[(1r,4S)-4-(aminomethyl)cyclohexyl]-3-[(isoquinolin-7-yl)methyl]-1,4,12-trioxo-2,5,11,13-tetraazahexadecane-10,14,16-tricarboxylic acid]	86%	78%	
O=C(O)CC[C@H](NC(=O)N[C@@H](CCCCNC(=O)[C@@H](Cc1ccc2ccncc2c1)NC(=O)[C@H]1CC[C@H](CNC(=O)CN2CCN(CC(=O)O)CCN(CC(=O)O)CCN(CC(=O)O)CC2)CC1)C(=O)O)C(=O)O [Example 42-B, (3R,10S,14S)-3-[(isoquinolin-7-yl)methyl]-1,4,12-trioxo-1-[(1r,4S)-4-({2-[4,7,10-tris(carboxymethyl)-1,4,7,10-tetraazacyclododecan-1-yl]acetamido}methyl)cyclohexyl]-2,5,11,13-tetraazahexadecane-10,14,16-tricarboxylic acid]	88%	34%	
NC[C@H]1CC[C@H](C(=O)N[C@@H](Cc2csc3ccccc23)C(=O)NCCCC[C@H](NC(=O)N[C@@H](CCC(=O)O)C(=O)O)C(=O)O)CC1 [Example 43-A, N^6—{N-[(1r,4S)-4-(aminomethyl)cyclohexane-1-carbonyl]-3-(1-benzothiophen-3-yl)-L-alanyl}-N^2-{[(1S)-1,3-dicarboxypropyl]carbamoyl}-L-lysine]	96%	82%	
NC[C@H]1CC[C@H](C(=O)N[C@H](Cc2ccc3cnccc3c2)C(=O)NCCCC[C@H](NC(=O)N[C@@H](CCC(=O)O)C(=O)O)C(=O)O)CC1 [Example 44-A, (3R,10S,14S)-1-[(1r,4S)-4-(aminomethyl)cyclohexyl]-3-[(isoquinolin-6-yl)methyl]-1,4,12-trioxo-2,5,11,13-tetraazahexadecane-10,14,16-tricarboxylic acid]	85%	68%	
O=C(O)CC[C@H](NC(=O)N[C@@H](CCCCNC(=O)[C@@H](Cc1ccc2cnccc2c1)NC(=O)[C@H]1CC[C@H](CNC(=O)CN2CCN(CC(=O)O)CCN(CC(=O)O)CCN(CC(=O)O)CC2)CC1)C(=O)O)C(=O)O [Example 44-B, (3R,10S,14S)-3-[(isoquinolin-6-yl)methyl]-1,4,12-trioxo-1-[(1r,4S)-4-({2-[4,7,10-tris(carboxymethyl)-1,4,7,10-tetraazacyclododecan-1-yl]acetamido}methyl)cyclohexyl]-2,5,11,13-tetraazahexadecane-10,14,16-tricarboxylic acid]	75%	22%	
NC[C@H]1CC[C@H](C(=O)N[C@H](Cc2ccc3cccnc3c2)C(=O)NCCCC[C@H](NC(=O)N[C@@H](CCC(=O)O)C(=O)O)C(=O)O)CC1 [Example 45-A, (3R,10S,14S)-1-[(1r,4S)-4-(aminomethyl)cyclohexyl]-1,4,12-trioxo-3-[(quinolin-7-yl)methyl]-2,5,11,13-tetraazahexadecane-10,14,16-tricarboxylic acid]	93%	87%	
O=C(O)CC[C@H](NC(=O)N[C@@H](CCCCNC(=O)[C@@H](Cc1ccc2cccnc2c1)NC(=O)[C@H]1CC[C@H](CNC(=O)CN2CCN(CC(=O)O)CCN(CC(=O)O)CCN(CC(=O)O)CC2)CC1)C(=O)O)C(=O)O [Example 45-B, (3R,10S,14S)-1,4,12-trioxo-3-[(quinolin-7-yl)methyl]-1-[(1r,4S)-4-({2-[4,7,10-tris(carboxymethyl)-1,4,7,10-tetraazacyclododecan-1-yl]acetamido}methyl)cyclohexyl]-2,5,11,13-tetraazahexadecane-10,14,16-tricarboxylic acid]	90%	47%	
Cn1ccc(C(=O)NCCN(CCNC(=O)c2ccn(C)c(=O)c2O)CC(Cc2ccc(NC(=O)CCC(=O)N[C@H](CCCNC(=N)N)C(=O)N[C@H](CCCNC(=N)N)C(=O)NC[C@H]3CC[C@H](C(=O)N[C@@H](Cc4ccc5ccccc5c4)C(=O)NCCCCC(NC(=O)N[C@@H](CCC(=O)O)C(=O)O)C(=O)O)CC3)cc2)CN(CCNC(=O)c2ccn(C)c(=O)c2O)CCNC(=O)c2ccn(C)c(=O)c2O)c(O)c1=O (stereo partly drawn) [Example 46-E]	78%	66%	
NC1CC2(C1)CC(C(=O)N[C@@H](Cc1ccc3ccccc3c1)C(=O)NCCCC[C@H](NC(=O)N[C@@H](CCC(=O)O)C(=O)O)C(=O)O)C2 (stereo partly drawn) [Example 47-A, (3S,10S,14S)-1-(6-aminospiro[3.3]heptan-2-yl)-3-[(naphthalen-2-yl)methyl]-1,4,12-trioxo-2,5,11,13-tetraazahexadecane-10,14,16-tricarboxylic acid]	94%	43%	
NC[C@H]1CC[C@H](C(=O)N[C@@H](Cc2ccc3ncccc3c2)C(=O)NCCCC[C@H](NC(=O)N[C@@H](CCC(=O)O)C(=O)O)C(=O)O)CC1 [Example 48-A, (3S,10S,14S)-1-[trans-4-(aminomethyl)cyclohexyl]-1,4,12-trioxo-3-[(quinolin-6-yl)methyl]-2,5,11,13-tetraazahexadecane-10,14,16-tricarboxylic acid]	73%	74%	
NCc1ccc(C(=O)N[C@@H](Cc2ccc3ncccc3c2)C(=O)NCCCC[C@H](NC(=O)N[C@@H](CCC(=O)O)C(=O)O)C(=O)O)nc1 [Example 49-A, (3S,10S,14S)-1-[5-(aminomethyl)pyridin-2-yl]-1,4,12-trioxo-3-[(quinolin-6-yl)methyl]-2,5,11,13-tetraazahexadecane-10,14,16-tricarboxylic acid]	65%	44%	
O=C(O)CC[C@H](NC(=O)N[C@@H](CCCCNC(=O)[C@H](Cc1ccc2ccccc2c1)NC(=O)[C@H]1CC[C@H](CNC(=O)CN2CCN(CC(=O)O)CCN(CC(=O)O)CCN(CC(=O)O)CC2)CC1)C(=O)O)C(=O)O [PSMA-617, reference compound]			below 5%
